Data from the NIST ThermoML archive (doi:10.1021/je9008969).

Tests used:
[1] = cn = amount concentration of the nth substance listed, in mol/dm3; conditions: 298.15 K, 101 kPa, Liquid, Alternating current cell with electrodes
[2] = Liquid; Distillation
[3] = mn = molality of the nth substance listed, in mol/kg; conditions: 298.15 K, 101 kPa, Liquid, Alternating current cell with electrodes

CCCC[n+]1ccccc1.[O-][Cl+3]([O-])([O-])[O-] [1-butylpyridinium perchlorate] + CC(=O)CC(C)C
[1]
Conditions | molar conductivity [S·m2/mol]
c1 = 0.0001223 | 0.00753
c1 = 0.0001384 | 0.00709
c1 = 0.0001791 | 0.00669
c1 = 0.0002332 | 0.00627
c1 = 0.0003126 | 0.00579
c1 = 0.0004224 | 0.00533
c1 = 0.0005585 | 0.0049
c1 = 0.0007544 | 0.00446
c1 = 0.001004 | 0.00408
c1 = 0.001345 | 0.00369
c1 = 0.001798 | 0.00335
c1 = 0.002419 | 0.00303
c1 = 0.00324 | 0.00274
c1 = 0.004348 | 0.00248
c1 = 0.005787 | 0.00225

CC(=O)CC(C)C [4-methylpentan-2-one]
Conditions | Normal boiling temperature [°C]
[2] | 114.20

CCCCCCC[N+](CCCCCCC)(CCCCCCC)CCCCCCC.[O-][Cl+3]([O-])([O-])[O-] [N,N,N-triheptylheptan-1-aminium perchlorate] + CC(=O)CC(C)C
[1]
Conditions | molar conductivity [S·m2/mol]
c1 = 7.179e-05 | 0.00765
c1 = 0.0001036 | 0.00729
c1 = 0.0001318 | 0.00704
c1 = 0.0001594 | 0.00683
c1 = 0.0002244 | 0.00639
c1 = 0.0002974 | 0.00603
c1 = 0.000405 | 0.00563
c1 = 0.0005438 | 0.00525
c1 = 0.0007266 | 0.00487
c1 = 0.0009775 | 0.0045
c1 = 0.001306 | 0.00414
c1 = 0.001751 | 0.0038
c1 = 0.002355 | 0.00348
c1 = 0.003149 | 0.00319
c1 = 0.004208 | 0.00292

CCCCC[N+](CCCCC)(CCCCC)CCCCC.[O-][Cl+3]([O-])([O-])[O-] [tetrapentylammonium perchlorate] + CC(=O)CC(C)C
[3]
Conditions | molar conductivity [S·m2/mol]
m1 = 9.66e-05 | 0.00743
m1 = 0.0001207 | 0.00719
m1 = 0.0001685 | 0.0068
m1 = 0.0002146 | 0.00647
m1 = 0.0002922 | 0.00606
m1 = 0.0004004 | 0.00562
m1 = 0.0005296 | 0.00524
m1 = 0.0007017 | 0.00487
m1 = 0.0009021 | 0.00468
m1 = 0.001262 | 0.00413
m1 = 0.001674 | 0.0038
m1 = 0.002257 | 0.00347
m1 = 0.003014 | 0.00318
m1 = 0.004036 | 0.0029
m1 = 0.0054 | 0.00265

C[N+](C)(C)C.[O-][Cl+3]([O-])([O-])[O-] [tetramethylammonium perchlorate] + CC(=O)CC(C)C
[1]
Conditions | molar conductivity [S·m2/mol]
c1 = 9.338e-06 | 0.0113
c1 = 1.196e-05 | 0.0112
c1 = 1.53e-05 | 0.0111
c1 = 1.98e-05 | 0.0108
c1 = 2.582e-05 | 0.0105
c1 = 3.276e-05 | 0.0101
c1 = 4.292e-05 | 0.00975
c1 = 5.528e-05 | 0.00934
c1 = 7.008e-05 | 0.00894
c1 = 9.231e-05 | 0.00847

CC[N+](CC)(CC)CC.[O-][Cl+3]([O-])([O-])[O-] [tetraethylammonium perchlorate] + CC(=O)CC(C)C
[1]
Conditions | molar conductivity [S·m2/mol]
c1 = 1.622e-05 | 0.00917
c1 = 2.705e-05 | 0.00898
c1 = 3.499e-05 | 0.00888
c1 = 4.526e-05 | 0.00874
c1 = 5.823e-05 | 0.00852
c1 = 7.469e-05 | 0.0083
c1 = 9.761e-05 | 0.00812

CCCC[N+](CCCC)(CCCC)CCCC.[O-][Cl+3]([O-])([O-])[O-] [tetrabutylammonium perchlorate] + CC(=O)CC(C)C
[1]
Conditions | molar conductivity [S·m2/mol]
c1 = 9.747e-05 | 0.00773
c1 = 0.0001341 | 0.00737
c1 = 0.0001902 | 0.00693
c1 = 0.0002367 | 0.00662
c1 = 0.0003186 | 0.00622
c1 = 0.0004325 | 0.00577
c1 = 0.0005781 | 0.00535
c1 = 0.0007683 | 0.00495
c1 = 0.001016 | 0.00457
c1 = 0.00138 | 0.00418
c1 = 0.001839 | 0.00383
c1 = 0.002457 | 0.00351
c1 = 0.003309 | 0.0032
c1 = 0.004418 | 0.00292
c1 = 0.005893 | 0.00267

CCCCCCCCCCCCCCCC[N+](C)(C)C.[O-][Cl+3]([O-])([O-])[O-] [N,N,N-trimethyl-1-hexadecanaminium perchlorate] + CC(=O)CC(C)C
[1]
Conditions | molar conductivity [S·m2/mol]
c1 = 0.0001172 | 0.00637
c1 = 0.0001513 | 0.006
c1 = 0.0002096 | 0.00553
c1 = 0.0002636 | 0.00519
c1 = 0.0003584 | 0.00476
c1 = 0.0005071 | 0.00427
c1 = 0.0006588 | 0.00394
c1 = 0.0008706 | 0.00359
c1 = 0.001168 | 0.00326
c1 = 0.001547 | 0.00295
c1 = 0.002106 | 0.00265
c1 = 0.002797 | 0.0024
c1 = 0.00376 | 0.00216
c1 = 0.005012 | 0.00194
c1 = 0.006683 | 0.00175

CCCCCC[N+](CCCCCC)(CCCCCC)CCCCCC.[O-][Cl+3]([O-])([O-])[O-] [tetrahexylammonium perchlorate] + CC(=O)CC(C)C
[1]
Conditions | molar conductivity [S·m2/mol]
c1 = 9.876e-05 | 0.00727
c1 = 0.0001295 | 0.00705
c1 = 0.0001762 | 0.00672
c1 = 0.0002207 | 0.00645
c1 = 0.0002798 | 0.00613
c1 = 0.0003687 | 0.00578
c1 = 0.0004788 | 0.00543
c1 = 0.0006209 | 0.00509
c1 = 0.0008088 | 0.00475
c1 = 0.001056 | 0.00441
c1 = 0.00138 | 0.00409
c1 = 0.001782 | 0.0038
c1 = 0.002321 | 0.00351
c1 = 0.003006 | 0.00324
c1 = 0.003917 | 0.00299

CCCCCC[N+](CC)(CC)CC.[O-][Cl+3]([O-])([O-])[O-] [N,N,N-triethyl-1-hexanaminium perchlorate] + CC(=O)CC(C)C
[1]
Conditions | molar conductivity [S·m2/mol]
c1 = 9.437e-05 | 0.00808
c1 = 0.0001362 | 0.00766
c1 = 0.0001739 | 0.00732
c1 = 0.0002195 | 0.00695
c1 = 0.0002862 | 0.00655
c1 = 0.0003746 | 0.00614
c1 = 0.0004856 | 0.00574
c1 = 0.0006345 | 0.00534
c1 = 0.000817 | 0.00498
c1 = 0.001056 | 0.00462
c1 = 0.001385 | 0.00426
c1 = 0.00181 | 0.00392
c1 = 0.002334 | 0.00362
c1 = 0.003049 | 0.00333
c1 = 0.003975 | 0.00307

CCCCCCCCCCCCCCCCCC[N+](C)(C)C.[O-][Cl+3]([O-])([O-])[O-] [N,N,N-trimethyl-1-octadecanaminium perchlorate] + CC(=O)CC(C)C
[1]
Conditions | molar conductivity [S·m2/mol]
c1 = 0.0001049 | 0.00634
c1 = 0.0001371 | 0.00601
c1 = 0.0001741 | 0.00568
c1 = 0.0002263 | 0.00531
c1 = 0.0002892 | 0.00497
c1 = 0.0003809 | 0.00458
c1 = 0.0004892 | 0.00425
c1 = 0.0006311 | 0.00392
c1 = 0.0008148 | 0.00361
c1 = 0.001062 | 0.0033
c1 = 0.001386 | 0.00302
c1 = 0.001802 | 0.00276
c1 = 0.002337 | 0.00251
c1 = 0.003032 | 0.00229

CCCCCCCCCCCCCCCC[n+]1ccccc1.[O-][Cl+3]([O-])([O-])[O-] [1-hexadecylpyridinium perchlorate] + CC(=O)CC(C)C
[1]
Conditions | molar conductivity [S·m2/mol]
c1 = 9.238e-05 | 0.00688
c1 = 0.0001329 | 0.0064
c1 = 0.0001691 | 0.00608
c1 = 0.0002261 | 0.00565
c1 = 0.0002954 | 0.00527
c1 = 0.0004138 | 0.0048
c1 = 0.0005388 | 0.00444
c1 = 0.0007214 | 0.00406
c1 = 0.0009671 | 0.0037
c1 = 0.001303 | 0.00335
c1 = 0.001719 | 0.00306
c1 = 0.002318 | 0.00277
c1 = 0.00312 | 0.0025
c1 = 0.00417 | 0.00226
c1 = 0.005569 | 0.00205
